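Cells were grown in 96-well plates and exposed to each compound for 48 hours at five concentrations; endpoints were interpolated linearly between bracketing concentrations, or set to the highest concentration if not reached. The concentration for 50% growth inhibition is given as GI50. TGI denotes the concentration required for complete inhibition of growth.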
What was measured:
Assay in all cases: NCI anticancer screen, dose series, 48 h
SK-MEL-2 melanoma = test system: SK-MEL-2 melanoma
NCI-H226 lung = test system: NCI-H226 lung
ACHN renal = test system: ACHN renal
SN12C renal = test system: SN12C renal
OVCAR-4 ovarian = test system: OVCAR-4 ovarian
TK-10 renal = test system: TK-10 renal
SW-620 colon = test system: SW-620 colon
NCI-H23 lung = test system: NCI-H23 lung
SF-539 CNS = test system: SF-539 CNS
T-47D breast = test system: T-47D breast
COLO 205 colon = test system: COLO 205 colon
NCI/ADR-RES ovarian = test system: NCI/ADR-RES ovarian
MALME-3M melanoma = test system: MALME-3M melanoma
HCT-116 colon = test system: HCT-116 colon
RXF 393 renal = test system: RXF 393 renal
CCRF-CEM leukemia = test system: CCRF-CEM leukemia
SR leukemia = test system: SR leukemia
SK-OV-3 ovarian = test system: SK-OV-3 ovarian
UO-31 renal = test system: UO-31 renal
EKVX NSCLC = test system: EKVX NSCLC
OVCAR-3 ovarian = test system: OVCAR-3 ovarian
SNB-19 CNS = test system: SNB-19 CNS
RPMI-8226 leukemia = test system: RPMI-8226 leukemia
KM12 colon = test system: KM12 colon
DU-145 prostate = test system: DU-145 prostate
786-0 renal = test system: 786-0 renal
A549 NSCLC = test system: A549 NSCLC
HS 578T breast = test system: HS 578T breast
MDA-MB-435 = test system: MDA-MB-435
K-562 leukemia = test system: K-562 leukemia
BT-549 breast = test system: BT-549 breast
SNB-75 CNS = test system: SNB-75 CNS
MDA-MB-231 breast = test system: MDA-MB-231 breast
A498 renal = test system: A498 renal
SK-MEL-5 melanoma = test system: SK-MEL-5 melanoma
U251 CNS = test system: U251 CNS
PC-3 prostate = test system: PC-3 prostate
SF-295 CNS = test system: SF-295 CNS
HCC-2998 colon = test system: HCC-2998 colon
SK-MEL-28 melanoma = test system: SK-MEL-28 melanoma
HOP-92 NSCLC = test system: HOP-92 NSCLC
UACC-62 melanoma = test system: UACC-62 melanoma
NCI-H460 lung = test system: NCI-H460 lung
CAKI-1 renal = test system: CAKI-1 renal
UACC-257 melanoma = test system: UACC-257 melanoma
MCF7 breast = test system: MCF7 breast
OVCAR-8 ovarian = test system: OVCAR-8 ovarian
NCI-H522 lung = test system: NCI-H522 lung
SF-268 CNS = test system: SF-268 CNS
HOP-62 NSCLC = test system: HOP-62 NSCLC
HT29 colon = test system: HT29 colon
MOLT-4 leukemia = test system: MOLT-4 leukemia
M14 melanoma = test system: M14 melanoma
OVCAR-5 ovarian = test system: OVCAR-5 ovarian
HL-60(TB) leukemia = test system: HL-60(TB) leukemia
HCT-15 colon = test system: HCT-15 colon

## NC(=S)c1c(N)n(C2OC(CO)C(O)C2O)c2ncnc(N)c12 (configuration not stated)
SK-MEL-2 melanoma
  GI50: 297 nM
  TGI: 1070 nM
NCI-H226 lung
  GI50: 695 nM
  TGI: 16000 nM
ACHN renal
  GI50: 268 nM
  TGI: > 100000 nM
SN12C renal
  GI50: 208 nM
  TGI: > 100000 nM
OVCAR-4 ovarian
  GI50: 264 nM
  TGI: > 100000 nM
TK-10 renal
  GI50: 297 nM
  TGI: 3560 nM
SW-620 colon
  GI50: 177 nM
  TGI: 836 nM
NCI-H23 lung
  GI50: 258 nM
  TGI: 1140 nM
SF-539 CNS
  GI50: 241 nM
  TGI: 1060 nM
T-47D breast
  GI50: 238 nM
  TGI: 1170 nM
COLO 205 colon
  GI50: 186 nM
  TGI: 567 nM
NCI/ADR-RES ovarian
  GI50: 276 nM
  TGI: 1270 nM
MALME-3M melanoma
  GI50: 426 nM
  TGI: 2230 nM
HCT-116 colon
  GI50: 211 nM
RXF 393 renal
  GI50: 237 nM
  TGI: 557 nM
CCRF-CEM leukemia
  GI50: 241 nM
  TGI: 773 nM
SR leukemia
  GI50: 63.6 nM
  TGI: 403 nM
SK-OV-3 ovarian
  GI50: 388 nM
  TGI: > 100000 nM
UO-31 renal
  GI50: 270 nM
  TGI: 2330 nM
EKVX NSCLC
  GI50: 345 nM
  TGI: 11000 nM
OVCAR-3 ovarian
  GI50: 287 nM
  TGI: 1200 nM
SNB-19 CNS
  GI50: 962 nM
  TGI: > 100000 nM
RPMI-8226 leukemia
  GI50: 511 nM
  TGI: 3050 nM
KM12 colon
  GI50: 258 nM
  TGI: 9610 nM
DU-145 prostate
  GI50: 278 nM
  TGI: > 100000 nM
786-0 renal
  GI50: 304 nM
A549 NSCLC
  GI50: 301 nM
  TGI: > 100000 nM
HS 578T breast
  GI50: 223 nM
  TGI: 648 nM
MDA-MB-435
  GI50: 259 nM
  TGI: 1010 nM
K-562 leukemia
  GI50: 62.2 nM
  TGI: 494 nM
BT-549 breast
  GI50: 170 nM
  TGI: 475 nM
SNB-75 CNS
  GI50: 885 nM
  TGI: 4170 nM
MDA-MB-231 breast
  GI50: 333 nM
  TGI: > 100000 nM
A498 renal
  GI50: 211 nM
  TGI: 522 nM
SK-MEL-5 melanoma
  GI50: 162 nM
  TGI: 2050 nM
U251 CNS
  GI50: 496 nM
  TGI: > 100000 nM
PC-3 prostate
  GI50: 221 nM
SF-295 CNS
  GI50: 659 nM
  TGI: > 27100 nM
HCC-2998 colon
  GI50: 204 nM
  TGI: 801 nM
SK-MEL-28 melanoma
  GI50: 295 nM
  TGI: 1810 nM
HOP-92 NSCLC
  GI50: 302 nM
  TGI: 3430 nM
UACC-62 melanoma
  GI50: 263 nM
  TGI: 1370 nM
NCI-H460 lung
  GI50: 200 nM
CAKI-1 renal
  GI50: 515 nM
  TGI: 5420 nM
UACC-257 melanoma
  GI50: 729 nM
  TGI: 4800 nM
MCF7 breast
  GI50: 57.9 nM
OVCAR-8 ovarian
  GI50: 232 nM
  TGI: 863 nM
NCI-H522 lung
  GI50: 188 nM
  TGI: 479 nM
SF-268 CNS
  GI50: 425 nM
  TGI: 4520 nM
HOP-62 NSCLC
  GI50: 210 nM
  TGI: 904 nM
HT29 colon
  GI50: 147 nM
  TGI: > 40900 nM
MOLT-4 leukemia
  GI50: 245 nM
  TGI: 927 nM
M14 melanoma
  GI50: 178 nM
  TGI: 648 nM
OVCAR-5 ovarian
  GI50: 342 nM
  TGI: 2920 nM
HL-60(TB) leukemia
  GI50: 135 nM
  TGI: 407 nM
HCT-15 colon
  GI50: 57.3 nM
  TGI: 435 nM
